Test results as given in patent publication US8129413B2, “Crystalline forms of MC4R agonist and process for synthesis” (Merck Sharp & Dohme Corp., priority 2005, dated 2012).

What was measured:
Assay type in all cases: physicochemical
[1] = Crystal form conversion on exposure to relative humidity
Experimental: (§1) Method 2 Drying the crystalline hydrate mono HCl salt of Compound I (1-7) at a temperature over about 4° C. and relative a humidity less than about 10% yields the crystalline anhydrous mono HCl salt Form I of Compound I (1-5). The crystalline hydrate mono HCl salt of Compound I (1-7) converts to the crystalline anhydrous mono HCl salt Form I of Compound I (1-5) by means of a continuous change; as the crystalline hydrate is dried, the x-ray diffraction pattern, solid-state carbon-13 CPMAS, and solid-state fluorine-19 MAS patterns merge from the crystalline hydrate to crystalline anhydrous Form I. Incomplete conversion to the anhydrous form I will yield a unique phase, not merely a mixture of crystalline anhydrous form I and crystalline hydrate.
Method 1 A solution of compound 1-3 from Example 1 (14.6 g, 26.7 mmol) in isopropyl acetate (91 ml, at 160 g/L) was agitated in vessel 1 at 15-25° C., and 0.5 N HCl/H2O solution (54.4 mL, 27.2 mmol) was added. The mixture was aged for 5-10 minutes with agitation followed by settling without agitation. The aqueous layer was removed and transferred to vessel 2. 20 ml of deionized water were charged to vessel 1, as a rinse of the isopropyl acetate layer. After agitating the isopropyl acetate-deionized water mixture for about 5 minutes, the aqueous layer was removed and combined with the aqueous layer in vessel 2. […]

[2] = Thermodynamic stability and interconversion of crystalline forms
Experimental: as §1

[3] = Storage stability of the free base

CC(=O)N[C@@H](C)c1cc(Cl)ccc1C1CCN(C(=O)C2CN(C(C)(C)C)C[C@H]2c2ccc(F)cc2F)CC1 (stereo partly drawn) [Compound 1-5]
relative humidity at which anhydrous Form I converts to crystalline hydrate mono HCl salt ([1]; exposure to humidity, continuous structural change): greater than 20%

CC(=O)N[C@@H](C)c1cc(Cl)ccc1C1CCN(C(=O)C2CN(C(C)(C)C)C[C@H]2c2ccc(F)cc2F)CC1 (stereo partly drawn) [Compound 1-6]
physical stability of the crystal form (conversion to another form) ([2]; room temperature): converts to crystalline anhydrous mono HCl salt Form I (1-5) at room temperature

CC(=O)N[C@@H](C)c1cc(Cl)ccc1C1CCN(C(=O)C2CN(C(C)(C)C)C[C@H]2c2ccc(F)cc2F)CC1 (stereo partly drawn) [Compound 1-7]
relative humidity at which hydrate converts to anhydrous mono HCl salt Form I ([1]; drying at a temperature over about 4° C.): less than 10%
thermodynamic stability among crystalline forms ([2]; ambient conditions): most thermodynamically stable crystalline form

CC(=O)N[C@@H](C)c1cc(Cl)ccc1C1CCN(C(=O)[C@@H]2CN(C(C)(C)C)C[C@H]2c2ccc(F)cc2F)CC1 [Compound I, N-{(1S)-1-[2-(1-{[(3S,4R)-1-tert-butyl-4-(2,4-difluorophenyl)pyrrolidin-3-yl]carbonyl}piperidin-4-yl)-5-chlorophenyl]ethyl}acetamide]
stability of the solid form ([3]; storage, light, heat): unstable, photosensitive and thermally sensitive
storage temperature above which subject to oxidation ([3]; stored): greater than −40 °C
